Article PMC5218480 (PLoS ONE, 2017)

Tested on: MV-4-11 cells
Assay: Gene expression microarray analysis (Affymetrix PrimeView) and GSEA
Assay type: cell-based, human
Set-up: RFU PODN (11730768_x_at) / Fold change /veh PODN (11730768_x_at) / RFU LINC00158 (11744669_a_at) / Fold change /veh LINC00158 (11744669_a_at) / RFU DUSP10 (11751237_a_at) / Fold change /veh DUSP10 (11751237_a_at) / RFU ID3 (11757404_x_at) / Fold change /veh ID3 (11757404_x_at) / RFU PLEKHG5 (11737974_s_at) / Fold change /veh PLEKHG5 (11737974_s_at) / RFU LRRC4B (11730491_at) / Fold change /veh LRRC4B (11730491_at) / RFU GIMAP4 (11747438_a_at) / Fold change /veh GIMAP4 (11747438_a_at) / RFU KRT8 (11758183_x_at) / Fold change /veh KRT8 (11758183_x_at) / RFU CNN1 (11734310_a_at) / Fold change /veh CNN1 (11734310_a_at) / RFU VPS37D (11726825_at) / Fold change /veh VPS37D (11726825_at) / RFU C10orf10 (11716522_x_at) / Fold change /veh C10orf10 (11716522_x_at) / RFU KIR2DL2 /// KIR2DL4 /// KIR2DL5A /// KIR2DL5B /// KIR2DS1 /// KIR2DS2 /// KIR2DS3 /// KIR2DS4 /// KIR3DL3 /// KIR3DL3 /// KIR3DS1 (11738374_at) / Fold change /veh KIR2DL2 /// KIR2DL4 /// KIR2DL5A /// KIR2DL5B /// KIR2DS1 /// KIR2DS2 /// KIR2DS3 /// KIR2DS4 /// KIR3DL3 /// KIR3DL3 /// KIR3DS1 (11738374_at) / RFU C1QL1 (11718748_at) / Fold change /veh C1QL1 (11718748_at) / RFU TMPRSS4 (11747572_a_at) / Fold change /veh TMPRSS4 (11747572_a_at) / RFU HAMP (11756126_x_at) / Fold change /veh HAMP (11756126_x_at) / RFU RNFT2 (11725882_a_at) / Fold change /veh RNFT2 (11725882_a_at) / RFU NR4A2 (11747474_a_at) / Fold change /veh NR4A2 (11747474_a_at) / RFU ABCC12 (11746883_a_at) / Fold change /veh ABCC12 (11746883_a_at) / RFU TMEM136 (11760407_x_at) / Fold change /veh TMEM136 (11760407_x_at) / RFU CLDN22 /// WWC2 (11732394_at) / Fold change /veh CLDN22 /// WWC2 (11732394_at) / RFU HLA-DPB1 (11760878_x_at) / Fold change /veh HLA-DPB1 (11760878_x_at) / RFU SPINT1 (11716480_a_at) / Fold change /veh SPINT1 (11716480_a_at) / RFU GAP43 (11754022_s_at) / Fold change /veh GAP43 (11754022_s_at) / RFU A4GNT (11735810_at) / Fold change /veh A4GNT (11735810_at) / RFU PRB3 (11715151_x_at) / Fold change /veh PRB3 (11715151_x_at) / RFU TUBB4B (11761932_at) / Fold change /veh TUBB4B (11761932_at) / RFU CAPN14 (11732068_a_at) / Fold change /veh CAPN14 (11732068_a_at) / RFU TMCC2 (11721928_a_at) / Fold change /veh TMCC2 (11721928_a_at) / RFU IRGQ (11745062_a_at) / Fold change /veh IRGQ (11745062_a_at) / RFU FAM174B (11720279_a_at) / Fold change /veh FAM174B (11720279_a_at) / RFU TMPRSS4 (11748680_a_at) / Fold change /veh TMPRSS4 (11748680_a_at) / RFU FAM212B (11763350_a_at) / Fold change /veh FAM212B (11763350_a_at) / RFU PLEKHG5 (11743358_a_at) / Fold change /veh PLEKHG5 (11743358_a_at) / RFU ZSCAN30 (11745921_a_at) / Fold change /veh ZSCAN30 (11745921_a_at) / RFU CMKLR1 (11741424_a_at) / Fold change /veh CMKLR1 (11741424_a_at) / RFU LOC101060620 /// MAPK8IP1 (11723275_at) / Fold change /veh LOC101060620 /// MAPK8IP1 (11723275_at) / RFU SPTSSB (11747773_x_at) / Fold change /veh SPTSSB (11747773_x_at) / RFU PRSS12 (11739890_at) / Fold change /veh PRSS12 (11739890_at) / RFU BIN1 (11741810_x_at) / Fold change /veh BIN1 (11741810_x_at) / RFU WNT11 (11732464_a_at) / Fold change /veh WNT11 (11732464_a_at) / RFU C10orf10 (11716521_a_at) / Fold change /veh C10orf10 (11716521_a_at) / RFU C5orf56 (11738089_at) / Fold change /veh C5orf56 (11738089_at) / RFU CYB561 (11721691_x_at) / Fold change /veh CYB561 (11721691_x_at) / RFU ANKRD19P (11752326_a_at) / Fold change /veh ANKRD19P (11752326_a_at) / RFU OR2T12 /// OR2T33 /// OR2T8 (11738714_s_at) / Fold change /veh OR2T12 /// OR2T33 /// OR2T8 (11738714_s_at) / RFU VCAN (11748164_a_at) / Fold change /veh VCAN (11748164_a_at) / RFU JSRP1 (11732532_at) / Fold change /veh JSRP1 (11732532_at) / RFU KRTAP10-11 (11738290_x_at) / Fold change /veh KRTAP10-11 (11738290_x_at) / RFU MYO3A (11730013_a_at) / Fold change /veh MYO3A (11730013_a_at) / RFU EBF3 (11725865_a_at) / Fold change /veh EBF3 (11725865_a_at) / RFU CAMK2N1 (11719241_x_at) / Fold change /veh CAMK2N1 (11719241_x_at) / RFU C5orf56 (11738088_a_at) / Fold change /veh C5orf56 (11738088_a_at) / RFU OLFML3 (11715873_a_at) / Fold change /veh OLFML3 (11715873_a_at) / RFU LOC100653217 /// NTM (11731650_a_at) / Fold change /veh LOC100653217 /// NTM (11731650_a_at) / RFU MAPK11 (11762145_a_at) / Fold change /veh MAPK11 (11762145_a_at) / RFU FIZ1 (11724087_x_at) / Fold change /veh FIZ1 (11724087_x_at) / RFU OASL (11726364_x_at) / Fold change /veh OASL (11726364_x_at) / RFU SOX15 (11748057_x_at) / Fold change /veh SOX15 (11748057_x_at) / RFU CD79A (11719716_a_at) / Fold change /veh CD79A (11719716_a_at) / RFU HIST1H1D (11736915_at) / Fold change /veh HIST1H1D (11736915_at) / RFU CASKIN2 (11723855_a_at) / Fold change /veh CASKIN2 (11723855_a_at) / RFU LOC730098 (11760151_x_at) / Fold change /veh LOC730098 (11760151_x_at) / RFU OR4N2 (11742367_at) / Fold change /veh OR4N2 (11742367_at) / RFU PRRT2 (11749266_a_at) / Fold change /veh PRRT2 (11749266_a_at) / RFU SNX32 (11753110_a_at) / Fold change /veh SNX32 (11753110_a_at) / RFU CDHR5 (11726645_a_at) / Fold change /veh CDHR5 (11726645_a_at) / RFU RCAN1 (11760418_a_at) / Fold change /veh RCAN1 (11760418_a_at) / RFU FAM167A (11723789_a_at) / Fold change /veh FAM167A (11723789_a_at) / RFU FAM26E (11764081_at) / Fold change /veh FAM26E (11764081_at) / RFU ISYNA1 (11749810_s_at) / Fold change /veh ISYNA1 (11749810_s_at) / RFU ACY1 (11761880_at) / Fold change /veh ACY1 (11761880_at) / RFU 11764098_at / Fold change /veh 11764098_at / RFU SAMD14 (11745864_x_at) / Fold change /veh SAMD14 (11745864_x_at) / RFU NPB (11741838_a_at) / Fold change /veh NPB (11741838_a_at) / RFU TMPRSS6 (11731388_a_at) / Fold change /veh TMPRSS6 (11731388_a_at) / RFU KRTAP10-2 (11738614_at) / Fold change /veh KRTAP10-2 (11738614_at) / RFU ARHGAP8 /// PRR5-ARHGAP8 (11727945_x_at) / Fold change /veh ARHGAP8 /// PRR5-ARHGAP8 (11727945_x_at) / RFU KRTAP5-7 /// NADSYN1 (11734609_at) / Fold change /veh KRTAP5-7 /// NADSYN1 (11734609_at) / RFU RASL12 (11751679_a_at) / Fold change /veh RASL12 (11751679_a_at) / RFU CDKN2B (11736163_a_at) / Fold change /veh CDKN2B (11736163_a_at) / RFU PRF1 (11729649_at) / Fold change /veh PRF1 (11729649_at) / RFU, ZNF638 /// ZNF638-IT1 / Fold change vs veh, ZNF638 /// ZNF638-IT1 / RFU, PANK3 / Fold change vs veh, PANK3 / RFU, SH3YL1 / Fold change vs veh, SH3YL1 / RFU, ZEB2 / Fold change vs veh, ZEB2 / RFU, NRIP1 / Fold change vs veh, NRIP1 / RFU, PTTG1IP / Fold change vs veh, PTTG1IP / RFU, CAPN2 / Fold change vs veh, CAPN2 / RFU, MED14 / Fold change vs veh, MED14 / RFU, SNORA58 / Fold change vs veh, SNORA58 / RFU, C1orf63 / Fold change vs veh, C1orf63 / RFU, LRRFIP1 / Fold change vs veh, LRRFIP1 / RFU, NDUFAF7 / Fold change vs veh, NDUFAF7 / RFU, SLC12A2 / Fold change vs veh, SLC12A2 / RFU, IBTK / Fold change vs veh, IBTK / RFU, ESF1 / Fold change vs veh, ESF1 / Fold change vs veh, TMEM50B / RFU, TAOK1 / Fold change vs veh, TAOK1 / RFU, ACBD3 / Fold change vs veh, ACBD3 / RFU, TMA16 / Fold change vs veh, TMA16 / RFU, RWDD3 / Fold change vs veh, RWDD3 / RFU, BCAT1 / Fold change vs veh, BCAT1 / RFU, EDEM3 / Fold change vs veh, EDEM3 / RFU, TMEM33 / Fold change vs veh, TMEM33 / RFU, WDR75 / Fold change vs veh, WDR75 / RFU, AHCTF1 / Fold change vs veh, AHCTF1 / RFU, TFRC / Fold change vs veh, TFRC / RFU, ZDHHC17 / Fold change vs veh, ZDHHC17 / RFU, NOM1 / Fold change vs veh, NOM1 / RFU, ARL8B / Fold change vs veh, ARL8B / RFU, ZBTB11 / Fold change vs veh, ZBTB11 / RFU, TAMM41 / Fold change vs veh, TAMM41 / RFU, KIAA1704 /// LOC100996395 / Fold change vs veh, KIAA1704 /// LOC100996395 / RFU, ING1 / Fold change vs veh, ING1 / RFU, TRMT61B / Fold change vs veh, TRMT61B / RFU, FUBP3 / Fold change vs veh, FUBP3 / RFU, TP53 / Fold change vs veh, TP53 / RFU, TNKS2 / Fold change vs veh, TNKS2 / RFU, ZFP14 / Fold change vs veh, ZFP14 / RFU, ACTR2 / Fold change vs veh, ACTR2 / RFU, PPP3R1 / Fold change vs veh, PPP3R1 / RFU, PIK3R1 / Fold change vs veh, PIK3R1 / RFU, HNRNPA1 / Fold change vs veh, HNRNPA1 / RFU, RNF170 / Fold change vs veh, RNF170 / RFU, ZNF28 / Fold change vs veh, ZNF28 / RFU, RNGTT / Fold change vs veh, RNGTT / RFU, OGT / Fold change vs veh, OGT / RFU, BRD1 / Fold change vs veh, BRD1 / RFU, MARS / Fold change vs veh, MARS / RFU, ZNF655 / Fold change vs veh, ZNF655 / RFU, FAHD1 / Fold change vs veh, FAHD1 / RFU, BDP1 / Fold change vs veh, BDP1 / RFU, LRRCC1 / Fold change vs veh, LRRCC1 / RFU, ARID1A / Fold change vs veh, ARID1A / RFU, ZNF146 / Fold change vs veh, ZNF146 / RFU, ZNF330 / Fold change vs veh, ZNF330 / RFU, GPN3 / Fold change vs veh, GPN3 / RFU, C9orf123 / Fold change vs veh, C9orf123 / RFU, N4BP2L2 / Fold change vs veh, N4BP2L2 / RFU, ARFIP1 / Fold change vs veh, ARFIP1 / RFU, FAM179B / Fold change vs veh, FAM179B / RFU, BCL10 / Fold change vs veh, BCL10 / RFU, UHRF1BP1L / Fold change vs veh, UHRF1BP1L / RFU, BET1 / Fold change vs veh, BET1 / RFU, CNOT2 / Fold change vs veh, CNOT2 / RFU, ZNF268 / Fold change vs veh, ZNF268 / Fold change vs veh, ZNF507 / RFU, DGCR2 / Fold change vs veh, DGCR2 / RFU, WDSUB1 / Fold change vs veh, WDSUB1 / Fold change vs veh, HSP90B1 /// MIR3652 / RFU, ADSS / Fold change vs veh, ADSS / RFU, GK / Fold change vs veh, GK / RFU, ZNF148 / Fold change vs veh, ZNF148 / RFU, TAF9 / Fold change vs veh, TAF9 / RFU, SLC1A5 / Fold change vs veh, SLC1A5 / RFU, SLMO2 / Fold change vs veh, SLMO2 / RFU, ABCC4 / Fold change vs veh, ABCC4 / RFU, LOC101060439 /// RAP1B / Fold change vs veh, LOC101060439 /// RAP1B / RFU, RFX7 / Fold change vs veh, RFX7 / RFU, GTPBP10 / Fold change vs veh, GTPBP10 / RFU, CNEP1R1 / Fold change vs veh, CNEP1R1 / RFU, BIVM-ERCC5 /// ERCC5 / Fold change vs veh, BIVM-ERCC5 /// ERCC5 / RFU, ILF3 / Fold change vs veh, ILF3 / RFU 11762660_at / Fold change /veh 11762660_at / RFU VCAN (11757783_s_at) / Fold change /veh VCAN (11757783_s_at) / RFU DDX43 (11728927_at) / Fold change /veh DDX43 (11728927_at) / RFU KRT8 (11758188_x_at) / Fold change /veh KRT8 (11758188_x_at) / RFU NKD1 (11759106_at) / Fold change /veh NKD1 (11759106_at) / RFU SRD5A1 (11742802_a_at) / Fold change /veh SRD5A1 (11742802_a_at) / RFU TPSAB1 /// TPSB2 (11721975_s_at) / Fold change /veh TPSAB1 /// TPSB2 (11721975_s_at) / RFU GSTM3 (11746129_a_at) / Fold change /veh GSTM3 (11746129_a_at) / RFU IL23R (11737362_x_at) / Fold change /veh IL23R (11737362_x_at) / RFU TMEM51 (11727254_a_at) / Fold change /veh TMEM51 (11727254_a_at) / RFU PIWIL2 (11732686_x_at) / Fold change /veh PIWIL2 (11732686_x_at) / RFU ORM1 (11744905_x_at) / Fold change /veh ORM1 (11744905_x_at) / RFU CCDC152 (11743942_at) / Fold change /veh CCDC152 (11743942_at) / RFU ECM1 (11717891_a_at) / Fold change /veh ECM1 (11717891_a_at) / RFU IL23R (11748794_a_at) / Fold change /veh IL23R (11748794_a_at) / RFU TNFAIP8L3 (11732012_x_at) / Fold change /veh TNFAIP8L3 (11732012_x_at) / RFU MBOAT4 (11741988_at) / Fold change /veh MBOAT4 (11741988_at) / RFU 11764193_at / Fold change /veh 11764193_at / RFU TMEM53 (11763286_at) / Fold change /veh TMEM53 (11763286_at) / RFU MAGEB2 (11727129_at) / Fold change /veh MAGEB2 (11727129_at) / RFU TMEM200A (11744735_a_at) / Fold change /veh TMEM200A (11744735_a_at) / RFU CCDC152 (11751479_a_at) / Fold change /veh CCDC152 (11751479_a_at) / RFU FAM211A (11726209_a_at) / Fold change /veh FAM211A (11726209_a_at) / RFU RGS16 (11746705_a_at) / Fold change /veh RGS16 (11746705_a_at) / RFU VCAN (11755009_s_at) / Fold change /veh VCAN (11755009_s_at) / RFU RHOB (11743442_s_at) / Fold change /veh RHOB (11743442_s_at) / RFU RGS16 (11720943_a_at) / Fold change /veh RGS16 (11720943_a_at) / RFU RGS16 (11720944_at) / Fold change /veh RGS16 (11720944_at) / RFU, VPS4B / Fold change vs veh, VPS4B / RFU, CREB1 / Fold change vs veh, CREB1 / RFU, DNAJC13 / Fold change vs veh, DNAJC13 / RFU, GNAQ / Fold change vs veh, GNAQ / RFU, CDK5R1 / Fold change vs veh, CDK5R1 / RFU, ZRANB3 / Fold change vs veh, ZRANB3 / RFU, CUL4A / Fold change vs veh, CUL4A / RFU, CCNY / Fold change vs veh, CCNY / RFU, UFL1 / Fold change vs veh, UFL1 / RFU, COG3 / Fold change vs veh, COG3 / RFU, DIAPH2 / Fold change vs veh, DIAPH2 / RFU, SKA2 / Fold change vs veh, SKA2 / RFU, AFF3 / Fold change vs veh, AFF3 / RFU, LMF1 / Fold change vs veh, LMF1 / RFU, IPO11 / Fold change vs veh, IPO11 / RFU, DFFB / Fold change vs veh, DFFB / RFU, FOXP1 / Fold change vs veh, FOXP1 / RFU, CARD8 / Fold change vs veh, CARD8 / RFU, STRN3 / Fold change vs veh, STRN3 / RFU, ADK / Fold change vs veh, ADK / RFU, RASSF2 / Fold change vs veh, RASSF2 / RFU, WIPF1 / Fold change vs veh, WIPF1 / RFU, LARP1B / Fold change vs veh, LARP1B / RFU, RASA1 / Fold change vs veh, RASA1 / RFU, RB1 / Fold change vs veh, RB1 / RFU, PPFIA1 / Fold change vs veh, PPFIA1 / RFU, MAT2A / Fold change vs veh, MAT2A / RFU, CCT5 / Fold change vs veh, CCT5 / RFU, WDR92 / Fold change vs veh, WDR92 / RFU, CUX1 / Fold change vs veh, CUX1 / RFU, TTC7A / Fold change vs veh, TTC7A / RFU, TMEM135 / Fold change vs veh, TMEM135 / RFU, DEPTOR / Fold change vs veh, DEPTOR / RFU, CPM / Fold change vs veh, CPM / RFU, DNAJB6 / Fold change vs veh, DNAJB6 / RFU, CACNA2D3 / Fold change vs veh, CACNA2D3 / RFU, DTX4 / Fold change vs veh, DTX4 / RFU, TFCP2 / Fold change vs veh, TFCP2 / RFU, GMCL1 /// GMCL1P1 / Fold change vs veh, GMCL1 /// GMCL1P1 / RFU, AEBP2 / Fold change vs veh, AEBP2 / RFU, SNHG1 /// SNORD22 /// SNORD25 /// SNORD26 /// SNORD27 /// SNORD28 /// SNORD29 /// SNORD31 / Fold change vs veh, SNHG1 /// SNORD22 /// SNORD25 /// SNORD26 /// SNORD27 /// SNORD28 /// SNORD29 /// SNORD31 / Fold change (Aza/veh), C12orf56 (ProbeSet 11735607_a_at) / Fold change (ACY-1035/veh), C12orf56 (ProbeSet 11735607_a_at) / Fold change (Aza/veh), FGFR1OP (ProbeSet 11751329_s_at) / Fold change (ACY-1035/veh), FGFR1OP (ProbeSet 11751329_s_at) / Fold change (Aza/veh), VPS36 (ProbeSet 11739960_a_at) / Fold change (ACY-1035/veh), VPS36 (ProbeSet 11739960_a_at) / RFU SYPL1 (11715823_x_at) / Fold change /veh SYPL1 (11715823_x_at) / RFU IGFBP7 (11715501_s_at) / Fold change /veh IGFBP7 (11715501_s_at) / RFU REEP3 (11722064_at) / Fold change /veh REEP3 (11722064_at) / RFU IGLL1 (11728026_x_at) / Fold change /veh IGLL1 (11728026_x_at): dose or concentration left out as unconfirmed
Details: MV-4-11 cells, 48 hours

## Nc1ccc(-c2cccs2)cc1NC(=O)c1ccc2c(c1)cc(C1CC1)n2CCN1CCOCC1 [ACY-1035]
  Fold change /veh RGS16 (11720944_at): 0.97
